Data taken from ChEMBL document CHEMBL1201862, “PubChem BioAssay data set” (2004).
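Exposure lasted 48 hours, with cells grown in 96-well plates and compounds tested at five concentrations. Abbreviation: GI50, concentration required for 50% inhibition of growth.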 Active and inactive are the calls of the source. Rule as the data show it: active = GI50 up to about 1.1 µM and inactive = higher.

How the values were obtained:
Assay in all cases: NCI anticancer screen, dose series, 48 h
HCC 2998 = test system: HCC 2998
RXF 393 = test system: RXF 393
SW-620 = test system: SW-620
SNB-19 = test system: SNB-19
OVCAR-4 = test system: OVCAR-4
KM12 = test system: KM12
OVCAR-3 = test system: OVCAR-3
MOLT-4 = test system: MOLT-4
ACHN = test system: ACHN
COLO 205 = test system: COLO 205
NCI-H522 = test system: NCI-H522
SF-268 = test system: SF-268
SK-OV-3 = test system: SK-OV-3
PC-3 = test system: PC-3
BT-549 = test system: BT-549
SF-539 = test system: SF-539
T47D = test system: T47D
TK-10 = test system: TK-10
Hs-578T = test system: Hs-578T
HCT-15 = test system: HCT-15

| SMILES | GI50 (HCC 2998) | GI50 (RXF 393) | GI50 (SW-620) | GI50 (SNB-19) | GI50 (OVCAR-4) | GI50 (KM12) | GI50 (OVCAR-3) | GI50 (MOLT-4) | GI50 (ACHN) | GI50 (COLO 205) | GI50 (NCI-H522) | GI50 (SF-268) | GI50 (SK-OV-3) | GI50 (PC-3) | GI50 (BT-549) | GI50 (SF-539) | GI50 (T47D) | GI50 (TK-10) | GI50 (Hs-578T) | GI50 (HCT-15) |
| --- | --- | --- | --- | --- | --- | --- | --- | --- | --- | --- | --- | --- | --- | --- | --- | --- | --- | --- | --- | --- |
| O=C(/C=C/c1ccc(OCCSCCCCCCCCCCSCCOc2ccc(/C=C/C(=O)c3ccc(Cl)cc3)cc2)cc1)c1ccc(Cl)cc1 | > 100 µM (inactive) | 43.6 µM (inactive) | > 100 µM (inactive) | > 74.3 µM (inactive) | > 100 µM (inactive) | > 100 µM (inactive) | > 100 µM (inactive) | > 100 µM (inactive) | > 88.1 µM (inactive) | > 100 µM (inactive) | > 89.3 µM (inactive) | 76 µM (inactive) | 65.5 µM (inactive) | > 100 µM (inactive) | > 100 µM (inactive) | 45.6 µM (inactive) | > 100 µM (inactive) | > 100 µM (inactive) | > 78.5 µM (inactive) | > 100 µM |
| Cc1ccc(C)c2c1NC(=O)/C2=N\Nc1ccccc1[N+](=O)[O-] | > 100 µM (inactive) | > 100 µM (inactive) | > 100 µM (inactive) | > 100 µM (inactive) | 38 µM (inactive) | > 100 µM (inactive) | > 100 µM (inactive) | > 100 µM (inactive) | > 100 µM (inactive) | > 100 µM (inactive) | > 100 µM (inactive) | > 100 µM (inactive) | > 100 µM (inactive) | > 100 µM (inactive) | > 100 µM (inactive) | 98.2 µM (inactive) | > 100 µM (inactive) | > 100 µM (inactive) | 35.7 µM (inactive) | > 100 µM |
| COC1(OC)CC(CO)(COc2cc(Cl)nc(N)n2)C1 | > 100 µM (inactive) | > 100 µM (inactive) | > 100 µM (inactive) | > 100 µM (inactive) | > 100 µM (inactive) | > 100 µM (inactive) | > 100 µM (inactive) | > 100 µM (inactive) | > 100 µM (inactive) | > 100 µM (inactive) | > 100 µM (inactive) | > 100 µM (inactive) | > 100 µM (inactive) | > 100 µM (inactive) | > 100 µM (inactive) | > 100 µM (inactive) | > 100 µM (inactive) | > 100 µM (inactive) | > 100 µM (inactive) | > 100 µM |
| O=C(O)c1nc2cc(Cl)ccc2[nH]c1=O | > 100 µM (inactive) | > 100 µM (inactive) | > 100 µM (inactive) | > 100 µM (inactive) | > 100 µM (inactive) | > 100 µM (inactive) | > 100 µM (inactive) | > 100 µM (inactive) | > 100 µM (inactive) | > 100 µM (inactive) | > 100 µM (inactive) | > 100 µM (inactive) | > 100 µM (inactive) | > 100 µM (inactive) | > 100 µM (inactive) | > 100 µM (inactive) | > 100 µM (inactive) | > 100 µM (inactive) | > 100 µM (inactive) | > 100 µM |
| COc1ccc(/N=N/C(=O)NC(CC(C)C)C(N)=O)cc1 (stereo not drawn) | > 31 µM (inactive) | > 31.6 µM (inactive) | > 29.2 µM (inactive) | > 100 µM (inactive) | > 31.6 µM (inactive) | 5.27 µM (inactive) | > 50 µM (inactive) | 7.74 µM (inactive) | > 31.1 µM (inactive) | 15.3 µM (inactive) | > 100 µM (inactive) | > 100 µM (inactive) | > 100 µM (inactive) | > 100 µM (inactive) | 47.1 µM (inactive) | 22.9 µM (inactive) | 12.2 µM (inactive) | > 31.6 µM (inactive) | > 100 µM (inactive) | > 24.4 µM |
| CCCCCCCCCc1c(O)c(O)c(CCCCCCCCC)c(CCCCCCCCC)c1CCCCCCCCC | > 100 µM (inactive) | > 100 µM (inactive) | > 100 µM (inactive) | > 100 µM (inactive) | > 100 µM (inactive) | > 100 µM (inactive) | 37.9 µM (inactive) | > 100 µM (inactive) | > 100 µM (inactive) | > 100 µM (inactive) | 30.2 µM (inactive) | > 100 µM (inactive) | > 100 µM (inactive) | > 100 µM (inactive) | > 100 µM (inactive) | > 100 µM (inactive) | > 100 µM (inactive) | > 100 µM (inactive) | > 100 µM (inactive) | > 100 µM |
| Oc1cc(O)c2c(c1)O[C@H](c1cc(O)c(O)c(O)c1)[C@H](O)C2 [EPIGALLOCATECHIN] | > 10 µM (inactive) | 15.2 µM (inactive) | 17.5 µM (inactive) | > 100 µM (inactive) | 14.7 µM (inactive) | – | 47 µM (inactive) | 14.6 µM (inactive) | 21.2 µM (inactive) | 18.2 µM (inactive) | 17.7 µM (inactive) | 25.4 µM (inactive) | 18.6 µM (inactive) | 16.5 µM (inactive) | 19.2 µM (inactive) | 20.3 µM (inactive) | 37.2 µM (inactive) | – | 52 µM (inactive) | 34.8 µM |
